US20230110757A1, “METHODS FOR TREATING ANIMALS, FEED, DRINKING WATER, WASH WATER, PROCESSING EQUIPMENT, PACKAGING MATERIALS, AND FOOD PRODUCTS” (EVOQ NANO, INC., priority 2021, published 2023)

Test system: E. coli, KwikStik, ATCC #51813
Experiment: Antibacterial efficacy test, RLU (ATP) counts post treatment
Type: cell-based
Description: An antibacterial efficacy test was carried out comparing an “Attostat” nanoparticle formulation (8 nm size) against silver nitrate and against the National Institute of Standards and Technology (NIST) Standard Nanocomposix 10 nm silver nanoparticles. The NIST nanoparticles are formed by a chemical reduction process that utilizes citrate as reducing and capping agent.
Relative Light Unit (RLU) counts were recorded at 12 hours and 24 hours post treatment. RLU measurements were carried out using a Hygiena SystemSURE Plus V.2 SN067503 RLU meter with Hygenia AquaSnap TOTAL ATP Water Test Cat #U143 Lot #153019. Culturing media was Hardy Diagnostics Buffered Peptone Water Lot #118272. Samples were prepared with the nanoparticle treatments and then diluted with the media to provide the tested concentrations. The test organism (Microbiologics, E. coli, KwikStik, ATCC #51813, Ref #0791 K, Lot #791-1-6) was incubated in fresh Buffered Peptone Water growth media for 24 hours prior to exposure to the nanoparticle treatments.

`O=[N+]([O-])[O-].[Ag+]` [AgNO3 Silver Nitrate, silver nitrate] was tested, and the “RLU Counts at 12 Hours Post Exposure to Nanoparticle Treatment” value (“RLU Counts at 12 Hours Post Exposure” for short) (0.25 ppm (mg/L)) was 80 RLU, the “RLU as percentage of control at 12 Hours Post Treatment” value (0.25 ppm (mg/L)) was 1.2% and the “RLU Counts at 24 Hours Post Exposure to Nanoparticle Treatment” value (“RLU Counts at 24 Hours Post Exposure” for short) (0.25 ppm (mg/L)) was 25 RLU. The “RLU as percentage of control at 24 Hours Post Treatment” value (0.25 ppm (mg/L)) was 0.34%, the “RLU Counts at 12 Hours Post Exposure” value (0.5 ppm (mg/L)) was 75 RLU and the “RLU as percentage of control at 12 Hours Post Treatment” value (0.5 ppm (mg/L)) was 1.1%. The “RLU Counts at 24 Hours Post Exposure” value (0.5 ppm (mg/L)) was 46 RLU, the “RLU as percentage of control at 24 Hours Post Treatment” value (0.5 ppm (mg/L)) was 0.62% and the “RLU Counts at 12 Hours Post Exposure” value (1.0 ppm (mg/L)) was 84 RLU. The “RLU as percentage of control at 12 Hours Post Treatment” value (1.0 ppm (mg/L)) was 1.3%, the “RLU Counts at 24 Hours Post Exposure” value (1.0 ppm (mg/L)) was 30 RLU and the “RLU as percentage of control at 24 Hours Post Treatment” value (1.0 ppm (mg/L)) was 0.41%.
